Patent US8058243B2, “Method for treating a brain cancer with ifenprodil” (HSC Research and Development Limited Partnership, priority 2006, dated 2011)
Structures can show the parent of a compound that is named as a salt. Where two headings read alike, the source gives them in different places.

System: murine neural precursor cells (neurosphere cultures)
Assay: HTS of LOPAC library against secondary neurosphere cultures, MTT proliferation assay at 3 μM, day 7 (z score, P value)
Type: cell-based, mouse
[1] = LOPAC library screen, 3 μM, MTT, neurosphere cultures
[2] = LOPAC primary screen, neurosphere MTT proliferation, 3 μM, day 7
[3] = yes/no: significantly inhibited neurosphere proliferation in primary screen
[4] = LOPAC library screen at 3 μM, secondary neurosphere cultures, MTT
[5] = LOPAC library screen, 3 μM, MTT, secondary neurosphere cultures, day 7
[6] = yes/no: significantly inhibited neurosphere proliferation (P<0.01) in primary screen
[7] = LOPAC screen, neurosphere MTT proliferation, 3 μM, day 7
[8] = LOPAC library screen at 3 μM, MTT, secondary neurosphere cultures, screened in singlets
[9] = yes/no: significantly inhibited neurosphere proliferation (P<0.01) in the primary screen
[10] = yes = significantly inhibited neurosphere proliferation (P<0.01) in the primary screen
[11] = primary LOPAC screen, 3 μM, MTT, neurosphere proliferation
[12] = yes/no: significantly inhibited neurosphere proliferation in the primary screen

`O=C(O)/C=C\C(=O)O.O=[N+]([O-])c1ccc2nc(N3CCNCC3)ccc2c1` [Quipazine, 6-nitro-, maleate] was tested, and the “Z Score” value [1] was 0.9782, the Z score [2] was 0.978 and the Activity [3] was “no”.

For `CC(C)[C@@H]1NC(=O)[C@H](CCCCN)NC(=O)[C@@H](Cc2c[nH]c3ccccc23)NC(=O)[C@H](Cc2ccc(O)cc2)NC(=O)[C@H](C)N(C)C(=O)[C@H](Cc2ccccc2)NC1=O` [Seglitide], the “Z Score” value [4] was −0.662, the Z score [2] was −0.662 and the Activity [3] was “no”.

For `CN(C)CCC(c1ccc(Cl)cc1)c1ccccn1.O=C(O)/C=C\C(=O)O` (single isomer, unassigned; (+)) [(+)-Chlorpheniramine maleate], the Activity was “no”, the “Z Score” value [5] was −1.272 and the Z score [2] was −1.272.

With `CCCN(CC1CC1)c1nc(C)nc(Nc2c(Cl)cc(Cl)cc2Cl)c1Cl` [NBI 27914] the “Z Score” value was 0.1345, the Z score [2] was 0.134 and the Activity [6] was “no”.

In the case of `C[C@H](Cc1ccc(OCC(=O)[O-])cc1)NC[C@H](O)c1cccc(Cl)c1.[Na+]` [BRL 37344 sodium], the “Z Score” value is reported as −1.725, the Z score [7] is reported as −1.725 and the Activity [6] is reported as “no”.

In the case of `Cn1c(=O)c2[nH]c(C3CCCC3)nc2n(C)c1=O` [8-Cyclopentyl-1,3-dimethylxanthine], the “Z Score” value (168 h, 3 µM) is reported as −0.1248, the Z score (168 h, 3 µM) is reported as −0.125 and the Activity [6] is reported as “no”.

In the case of `COC(=O)C1=C(C)NC(C)=C([N+](=O)[O-])C1c1ccccc1C(F)(F)F` (racemic) [(±)-Bay K 8644], the Z score [7] is reported as 0.853 and the Activity [6] is reported as “no”.

In the case of `O=C(O)CCCCC1CCSS1` (racemic) [(±)-alpha-Lipoic Acid], the Z score [2] is reported as 0.342 and the Activity [3] is reported as “no”.

`Cl.Oc1cc2c(cc1O)C(c1ccccc1)CNCC2` (racemic) [(±)-SKF-38393 hydrochloride] was tested, and the Activity was “no” and the Z score [7] was 1.280.

For `COc1ccc(CCN(C)CCCC(C#N)(c2cc(OC)c(OC)c(OC)c2)C(C)C)cc1OC.Cl` (stereo not drawn) [(B1)-Methoxyverapamil hydrochloride], the “Z Score” value was −1.407.

`C#C[C@]1(O)CC[C@H]2[C@@H]3CCC4=Cc5oncc5C[C@]4(C)[C@H]3CC[C@@]21C` [Danazol] was tested, and the “Z Score” value [8] was 2.152, the Z score [7] was 2.152 and the Activity [6] was “no”.

With `C[C@]12CCC(=O)C=C1CC[C@@H]1[C@@H]2CC[C@@]2(C)[C@H]1CC[C@]2(O)C(=O)CO` [Cortexolone] the “Z Score” value [4] was −0.6087, the Z score [2] was −0.609 and the Activity [3] was “no”.

`CC[N+](CC)(CC)CCOc1ccc(/C=C/c2ccccc2)cc1` [MG 624] was tested, and the “Z Score” value (168 h, 3 µM) was −10.66, the Z score (168 h, 3 µM) was −10.660 and the Activity [9] was “yes”.

In the case of `N#CC(C#N)=C(N)/C(C#N)=C/c1ccc(O)cc1` [Tyrphostin AG 112], the “Z Score” value [1] is reported as 0.3333, the Z score [2] is reported as 0.333 and the Activity [3] is reported as “no”.

With `CCCCCCCCCCCCCCC[C@H](O)[C@H](N)CO` (racemic) [DL-erythro-Dihydrosphingosine] the “Z Score” value [1] was −0.0785, the Z score [7] was −0.079 and the Activity [6] was “no”.

`O=c1onc2n1-c1cc(Br)ccc1OC2` [NS 2028] was tested, and the “Z Score” value was −2.684, the Z score [2] was −2.684 and the Activity [10] was “yes”.

For `Nc1ccncc1` [4-Aminopyridine], the “Z Score” value [5] was −1.516, the Z score [2] was −1.516 and the Activity [3] was “no”.

For `CC(C)[C@H]1CN[C@H](C(=O)O)[C@H]1CC(=O)O` [Dihydrokainic acid], the “Z Score” value was 1.329, the Z score [7] was 1.329 and the Activity [6] was “no”.

In the case of `CC(N)(Cc1ccc(O)cc1)C(=O)O` (racemic) [DL-alpha-Methyl-p-tyrosine], the “Z Score” value is reported as −3.908, the Z score [2] is reported as −3.908 and the Activity [9] is reported as “yes”.

In the case of `NC12CC3CC(CC(C3)C1)C2` [Amantadine hydrochloride], the “Z Score” value [4] is reported as −0.6531, the Z score [11] is reported as −0.653 and the Activity [12] is reported as “no”.

With `CC(C)C(=O)Nc1ccc([N+](=O)[O-])c(C(F)(F)F)c1` [Flutamide] the “Z Score” value [4] was −0.1133 and the Z score [2] was −0.113.

With `CCn1nc(C(=O)O)c(=O)c2cc3c(cc21)OCO3` [Cinoxacin] the “Z Score” value [4] was −1.095, the Z score [7] was −1.095 and the Activity [6] was “no”.

In the case of `CC(=O)O[C@]1(C(C)=O)CC[C@H]2[C@@H]3C=C(Cl)C4=CC(=O)[C@@H]5C[C@@H]5[C@]4(C)[C@H]3CC[C@@]21C` [Cyproterone acetate], the “Z Score” value [5] is reported as −1.803, the Z score [7] is reported as −1.803 and the Activity [6] is reported as “no”.

With `OCCN1CCN(CCCN2c3ccccc3Sc3ccc(Cl)cc32)CC1` [Perphenazine (26), Perphenazine, reference compound] the “Z Score” value [5] was −11.06, the Z score [2] was −11.065 and the Activity [9] was “yes”.

In the case of `O=NN(CCCl)C(=O)NCCCl` [Carmustine], the “Z Score” value [8] is reported as 2.191, the Z score [7] is reported as 2.191 and the Activity [6] is reported as “no”.

In the case of `O=C(O)/C=C1\CCCc2ccccc2C1O` (stereo not drawn) [NCS-382], the “Z Score” value is reported as −1.733, the Z score [2] is reported as −1.733 and the Activity [10] is reported as “no”.

R(−)-Apocodeine hydrochloride was tested, and the “Z Score” value was −9.865, the Z score [2] was −9.865 and the Activity [9] was “yes”.

With `CC1=C(C)C(=O)C(CCCCC#CCCCC#CCO)=C(C)C1=O` [AA-861] the “Z Score” value [8] was 1.517 and the Z score [11] was 1.517.

`Cl.c1ccc(CN(CC2=NCCN2)c2ccccc2)cc1` [Antozoline hydrochloride] was tested, and the “Z Score” value was 0.4854, the Z score [11] was 0.485 and the Activity [12] was “no”.

For `CC(CCc1ccccc1)NC(C)C(O)c1ccc(O)cc1` (stereo not drawn) [Nylidrin hydrochloride], the “Z Score” value [5] was −1.375, the Z score [2] was −1.375 and the Activity [10] was “no”.

In the case of `CCOC(=O)[N-]c1cn(N2CCOCC2)n[o+]1` [Molsidomine], the “Z Score” value [8] is reported as 1.567, the Z score [2] is reported as 1.567 and the Activity [10] is reported as “no”.

For `N#C/C(=C\c1ccc(O)c(O)c1)C(=O)NCCCNC(=O)/C(C#N)=C/c1ccc(O)c(O)c1` [Tyrphostin AG 537], the “Z Score” value was −1.249, the Z score [11] was −1.249 and the Activity [12] was “no”.

For `COc1cccc(-c2cc(=O)c3ccccc3o2)c1N` [PD 98,059], the Activity was “no”, the “Z Score” value was 0.9027 and the Z score [2] was 0.903.

`Cl.NO` [Hydroxylamine hydrochloride] was tested, and the Activity was “no”, the “Z Score” value was 1.635 and the Z score was 1.635.

In the case of `C[C@@H]1OC[C@H](C[N+](C)(C)C)O1.[I-]` [(+)-cis-Dioxolane iodide], the “Z Score” value is reported as −3.402, the Z score [2] is reported as −3.402 and the Activity [9] is reported as “yes”.

With `N=C(N)N1CCc2ccccc2C1` [Debrisoquin sulfate] the “Z Score” value [4] was −0.3034, the Z score [7] was −0.303 and the Activity [6] was “no”.

In the case of `CC(C(=O)O)c1ccc(CC2CCCC2=O)cc1` (stereo not drawn) [loxoprofen], the “Z Score” value [4] is reported as −0.8833, the Z score [2] is reported as −0.883 and the Activity [6] is reported as “no”.

In the case of `OCCN(CCO)c1nc(N2CCCCC2)c2nc(N(CCO)CCO)nc(N3CCCCC3)c2n1` [Dipyridamole], the Activity is reported as “no”, the “Z Score” value [4] is reported as −0.7267 and the Z score [7] is reported as −0.727.

`CCCn1c(=O)[nH]c(=O)c2[nH]cnc21` [3-n-Propylxanthine] was tested, and the “Z Score” value [4] was −1.094, the Z score [2] was −1.094 and the Activity [10] was “no”.

For `C/C(=C\c1ccc(C(=O)O)cc1)c1ccc2c(c1)C(C)(C)CCC2(C)C` [TTNPB], the “Z Score” value was −2.158, the Z score [11] was −2.158 and the Activity [12] was “no”.

With `CN(C)CCCC1(c2ccc(F)cc2)OCc2cc(C#N)ccc21` (stereo not drawn) [Citalopram hydrobromide] the “Z Score” value [5] was −1.858, the Z score [7] was −1.858 and the Activity [6] was “no”.

With `CC(=O)[C@]1(O)Cc2c(O)c3c(c(O)c2[C@@H](O[C@H]2C[C@H](N)[C@H](O)[C@H](C)O2)C1)C(=O)c1ccccc1C3=O` [Idarubicin] the “Z Score” value [5] was −11.27, the Z score [2] was −11.274 and the Activity [10] was “yes”.

`Cl.Cl.Cl.Ic1ccc(N2CCN(Cc3c[nH]c4ncccc34)CC2)cc1` [L-750,667 trihydrochloride] was tested, and the “Z Score” value was −1.184, the Z score [2] was −1.184 and the Activity [9] was “no”.

In the case of `Cn1cnc2c(NCc3ccccc3)nc(NCCO)nc21` [Olomoucine], the “Z Score” value (168 h, 3 µM) is reported as 1.553 and the Z score (168 h, 3 µM) is reported as 1.553.

`CN1C[C@H](C(=O)N[C@]2(C)O[C@@]3(O)[C@@H]4CCCN4C(=O)[C@H](Cc4ccccc4)N3C2=O)C[C@@H]2c3cccc4[nH]cc(c34)C[C@H]21` [Dihydroergotamine methanesulfonate] was tested, and the “Z Score” value [4] was −0.7795, the Z score [7] was −0.779 and the Activity [6] was “no”.

For `NC(=O)c1ncn([C@@H]2O[C@H](CO)[C@@H](O)[C@H]2O)c1O` [Mizorbine], the Z score [2] was 1.642 and the Activity [10] was “no”.

In the case of `Cl.Cl.NCCCCN` [Putrescine dihydrochloride], the Activity is reported as “no”, the “Z Score” value is reported as −0.7689 and the Z score is reported as −0.769.

`O=c1ccn([C@@H]2O[C@H](COP(=O)([O-])OP(=O)([O-])[O-])[C@@H](O)[C@H]2O)c(=O)[nH]1.[Na+].[Na+].[Na+]` [Uridine 5′-diphosphate sodium] was tested, and the “Z Score” value (168 h, 3 µM) was 0.7074, the Z score (168 h, 3 µM) was 0.707 and the Activity [12] was “no”.

`CCN(CC)C(C)C(=O)N1c2ccccc2Sc2ccccc21` (stereo not drawn) [10-(alpha-Diethylaminopropionyl)-phenothiazine] was tested, and the Z score [2] was −1.545 and the Activity [9] was “no”.

`Cc1nnc2ccc(-c3cccc(C(F)(F)F)c3)nn12` [3-Methyl-6-(3-[trifluoromethyl]phenyl)-1,2,4-triazolo[4,3-b]pyridazine] was tested, and the “Z Score” value was 0.09095, the Z score [2] was 0.091 and the Activity [10] was “no”.

`CC1=C(/C=C/C(C)=C/C=C/C(C)=C/C=C/C=C(C)/C=C/C=C(C)/C=C/C2=C(C)C(=O)[C@@H](O)CC2(C)C)C(C)(C)C[C@H](O)C1=O` [Astaxanthin] was tested, and the “Z Score” value (168 h, 3 µM) was 1.571, the Z score (168 h, 3 µM) was 1.571 and the Activity [9] was “no”.

With `COCCc1ccc(OCC(O)CNC(C)C)cc1.O=C(O)C(O)C(O)C(=O)O` (stereo not drawn) [(B1)-Metoprolol (+)-tartrate] the “Z Score” value was −0.2689.
